# Data published in US10813920B2, “Drug for treating corneal endothelium by promoting cell proliferation or inhibiting cell damage” (THE DOSHISHA, priority 2013, dated 2020).
# System: human corneal endothelial cells
# Test: IL-6 production by RT-PCR and ELISA
# Format: cell-based
# Details: 10 μM, cultured for 20 days
# Protocol: *PCR: PCR was carried out on each laminin chain and integrin chain by RT-PCR (reverse transcription polymerase chain reaction). A primer was purchased from the oligonucleotide synthesis company INVITROGEN and then desalinized for use. RNEasy Mini Kit (QIAGEN, catalog number: 74106) was used for extracting the entire RNA from cells. The Descemet's membrane including corneal endothelial cells were peeled off from a cornea for research purchased from the Seattle Eye Bank and the corneal endothelial cells were mechanically peeled off with the basal membrane for use in RNA extraction from the corneal endothelial cells. […]
# Electrophoresis is applied to an amplified DNA fragment with 1.5% agarose gel (Nacalai Tesque, catalog number: 01149-76) and the fragment was detected by staining with ethidium bromide (Nacalai Tesque, catalog number: 14603-51).
# *The amount of IL-6 expression of human corneal endothelial cells was quantified by RT-PCR by the following method. […] The reaction was stopped with 1M sulfuric acid to measure the absorbance at 450 nm with a plate reader. […] The amount of IL-6 protein in a culture supernatant collected after 7 days was quantified in accordance with the manual of DuoSetELISA human IL-6 (R & D Cat # DY206). […]
compound,measurement,setting,value
"C[S+]([O-])c1ccc(-c2nc(-c3ccncc3)c(-c3ccc(F)cc3)[nH]2)cc1 (centres unmarked) [SB203580, 4-(4-fluorophenyl)-2-(4-methylsulfinylphenyl)-5-(4-pyridyl)-1H-imidazole]",IL-6 production (PCR),RT-PCR,decreases relative to the control
same,IL-6 production (ELISA),supernatant collected after 7 days,decreases relative to the control
